Reference: patent publication US11058742B2, “Food composition for suppressing hepatic lipogenesis” (FUJI OIL HOLDINGS INC., priority 2019, dated 2021)

How the values were obtained:
[1] = tested on: Fasn gene mRNA; assay: Secondary screening: expression level of Fasn gene mRNA in isolated hepatocyte derived from wild-type mouse; assay type: cell-based, mouse (C57BL/6J); conditions: each peptide 100 μg/ml final concentration, 24 hours, with insulin, LXR agonist, amino acid mixture; vs control (10% DMSO)
Procedure: (§1) In the secondary screening, evaluation is performed by measuring the expression level of Fasn gene mRNA using isolated hepatocyte derived from wild-type mouse (C57BL/6J mouse). More specifically, isolated hepatocyte derived from wild-type mouse (C57BL/6J mouse) is plated in 12-well plate in Dulbecco's modified Eagle's medium (DMEM) containing 1% penicillin and streptomycin, and 10% fetal calf serum (FCS) for 8 hours, and then subjected to 16 hours starvation by replacing the medium with Dulbecco's modified Eagle's medium (DMEM) containing 1% penicillin and streptomycin. The medium is recovered and cultured for 24 hours in a medium containing insulin, liver X receptor (LXR) agonist, amino acid mixture, and each peptide (100 μg/ml in the medium at final concentration). In addition, as a group without adding peptide, a sample to which 10% dimethyl sulfoxide (DMSO) is added instead of the peptide is similarly cultured for 24 hours. After removing the medium from each well, mRNA is extracted. The extraction of mRNA is performed with the SV Total RNA Isolation System (Promega, Z3105), reverse transcription from the RNA is performed with the PrimeScript RT reagent kit (Takara, RR0037A), and quantitative PCR is performed with the CFX384 Real-Time System and C1000 Thermal Cycler using the SYBR Select Master Mix kit (Life technologies, 4472908). The methods comply with the instructions for the kit and equipment.

[2] = tested on: Fasn gene mRNA; assay: Tertiary screening: Fasn gene expression level with changed amount of peptide; assay type: cell-based, mouse (C57BL/6J); conditions: for effect of suppressing hepatic lipogenesis: conclusion from the results of primary to tertiary screening; for Fasn gene expression level (significantly reduced compared to the blank): final concentration of the sample 10, 30, 100 μg/ml, otherwise as secondary screening
Procedure: as §1
The amount of peptide to be added is changed (as used herein, the final concentration of the sample is 10, 30, 100 μg/ml, unless otherwise specified), and the expression level of the Fasn gene is evaluated in the same manner as in the secondary screening.

Row | Substance | Fasn gene expression level (significantly reduced compared to the blank) [1] | effect of suppressing hepatic lipogenesis [2] | Fasn gene expression level (significantly reduced compared to the blank) [2]
1 | Ala-Gly | significantly suppressed the expression of the Fasn gene | an effect of suppressing hepatic lipogenesis was confirmed | significantly suppressed the expression of the Fasn gene
2 | Ala-His | significantly suppressed the expression of the Fasn gene |  | 
3 | Ala-Tyr | significantly suppressed the expression of the Fasn gene |  | 
4 | Arg-Ala-Val |  | an effect of suppressing hepatic lipogenesis was confirmed | significantly suppressed the expression of the Fasn gene
5 | Arg-Trp-Phe |  | an effect of suppressing hepatic lipogenesis was confirmed | significantly suppressed the expression of the Fasn gene
6 | Asn-Arg-Val |  | an effect of suppressing hepatic lipogenesis was confirmed | significantly suppressed the expression of the Fasn gene
7 | Asn-Gly-Arg |  | an effect of suppressing hepatic lipogenesis was confirmed | significantly suppressed the expression of the Fasn gene
8 | Asp-Phe-Phe |  | an effect of suppressing hepatic lipogenesis was confirmed | significantly suppressed the expression of the Fasn gene
9 | Asp-Val-Phe |  | an effect of suppressing hepatic lipogenesis was confirmed | significantly suppressed the expression of the Fasn gene
10 | Gln-Glu-Glu |  | an effect of suppressing hepatic lipogenesis was confirmed | significantly suppressed the expression of the Fasn gene
11 | Gly-Ser-Leu |  | an effect of suppressing hepatic lipogenesis was confirmed | significantly suppressed the expression of the Fasn gene
12 | His-Ala-Gln |  | an effect of suppressing hepatic lipogenesis was confirmed | significantly suppressed the expression of the Fasn gene
13 | His-Asn | significantly suppressed the expression of the Fasn gene | an effect of suppressing hepatic lipogenesis was confirmed | significantly suppressed the expression of the Fasn gene
14 | His-Ser | significantly suppressed the expression of the Fasn gene | an effect of suppressing hepatic lipogenesis was confirmed | significantly suppressed the expression of the Fasn gene
15 | His-Thr | significantly suppressed the expression of the Fasn gene | an effect of suppressing hepatic lipogenesis was confirmed | significantly suppressed the expression of the Fasn gene
16 | His-Trp | significantly suppressed the expression of the Fasn gene | an effect of suppressing hepatic lipogenesis was confirmed | significantly suppressed the expression of the Fasn gene
17 | Ile-Asp-Arg |  | an effect of suppressing hepatic lipogenesis was confirmed | significantly suppressed the expression of the Fasn gene
18 | Ile-His-Arg |  | an effect of suppressing hepatic lipogenesis was confirmed | significantly suppressed the expression of the Fasn gene

Row | Substance | Fasn gene expression level (significantly reduced compared to the blank) [1] | effect of suppressing hepatic lipogenesis [2] | Fasn gene expression level (significantly reduced compared to the blank) [2]
19 | Ile-Ile-Pro |  | an effect of suppressing hepatic lipogenesis was confirmed | significantly suppressed the expression of the Fasn gene
20 | Ile-Val-Ile |  | an effect of suppressing hepatic lipogenesis was confirmed | significantly suppressed the expression of the Fasn gene
21 | Leu-Arg-Asp |  | an effect of suppressing hepatic lipogenesis was confirmed | significantly suppressed the expression of the Fasn gene
22 | Leu-Val-Ile |  | an effect of suppressing hepatic lipogenesis was confirmed | significantly suppressed the expression of the Fasn gene
23 | Lys-Leu-Gly |  | an effect of suppressing hepatic lipogenesis was confirmed | significantly suppressed the expression of the Fasn gene
24 | Lys-Pro-Ile |  | an effect of suppressing hepatic lipogenesis was confirmed | significantly suppressed the expression of the Fasn gene
25 | Phe-Ile-Arg |  | an effect of suppressing hepatic lipogenesis was confirmed | significantly suppressed the expression of the Fasn gene
26 | Pro-Phe-Tyr |  | an effect of suppressing hepatic lipogenesis was confirmed | significantly suppressed the expression of the Fasn gene
27 | Ser-Gly-Glu |  | an effect of suppressing hepatic lipogenesis was confirmed | significantly suppressed the expression of the Fasn gene
28 | Ser-Ser-Val |  | an effect of suppressing hepatic lipogenesis was confirmed | significantly suppressed the expression of the Fasn gene
29 | Trp-Glu | significantly suppressed the expression of the Fasn gene | an effect of suppressing hepatic lipogenesis was confirmed | significantly suppressed the expression of the Fasn gene
30 | Trp-Lys | significantly suppressed the expression of the Fasn gene | an effect of suppressing hepatic lipogenesis was confirmed | significantly suppressed the expression of the Fasn gene
31 | Tyr-Lys | significantly suppressed the expression of the Fasn gene | an effect of suppressing hepatic lipogenesis was confirmed | significantly suppressed the expression of the Fasn gene
32 | Tyr-Ser | significantly suppressed the expression of the Fasn gene | an effect of suppressing hepatic lipogenesis was confirmed | significantly suppressed the expression of the Fasn gene
33 | Val-Ile-Leu |  | an effect of suppressing hepatic lipogenesis was confirmed | significantly suppressed the expression of the Fasn gene
34 | Val-Leu-Gln |  | an effect of suppressing hepatic lipogenesis was confirmed | significantly suppressed the expression of the Fasn gene
35 | Val-Phe-Val |  | an effect of suppressing hepatic lipogenesis was confirmed | significantly suppressed the expression of the Fasn gene
